The test system of the data set is male and female volunteers backs. Nature of the data set: Occlusive multiple patch test for skin irritation potential (Hayes Chamber). Format: in vivo, human. The following applies: shampoos diluted to 10% by weight in tap water; 25 μl per chamber; 3 applications, 72 hours total skin contact; visual scoring by dermatologist, 0 (no apparent cutaneous involvement) to 4 (severe erythema with edema). As to the method: The above composition and the comparative compositions (see below) were tested for their skin irritation potential in an occlusive patch test using male and female volunteers backs aging 45+−14 years using Hayes Chamber with 25 μl volume. In detail, the shampoo compositions to be tested were diluted to a shampoo concentration of 10% by weight in tap water and homogeneously mixed. Using a laboratory calibrated pipette 25 μl of the solutions were filled into the chambers and the samples were patched onto the backs of the volunteers. The application was repeated 3 times (the duration of skin contact in total is 72 hours). After removal of the last patch (after 72 hrs), the application areas were evaluated visually by a dermatologist. The evaluation scores were as follows: [table] Such kind of tests are offered by several dermatological institutes or dermatologists having private clinics and the tests of the present invention were as well carried out in a dermatological institutes in Germany.

On to `CCCCCCCCCCCCOS(=O)(=O)[O-].[Na+]` [1% SDS* solution, sodium dodecyl sulfate], for which the Irritation score amounted to 1.99.

For the origin of these results see patent publication US20060135393A1, “Mild cleansing composition” (KPSS-Kao Professional Salon Services GmbH, priority 2004, published 2006).
